Experimental data taken from patent publication US9302999B2, “Substituted triazoles as herbicides” (E. I. DU PONT DE NEMOURS AND COMPANY, priority 2012, dated 2016).
Like-named read-outs stand apart in the source and are kept apart here.

Legend:
[1] = system: nutsedge, yellow (yellow nutsedge, Cyperus esculentus); assay: Test C pre-/postemergence: nutsedge, yellow; type: in vivo
Method in brief: (§1)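 Visual injury scored 0–100 (100 = complete control) against untreated controls after 13–15 greenhouse days. Surfactant-containing solvent formulations applied either to soil after sowing (loam/sand) or over 1- to 4-leaf plants, 2–18 cm tall.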

[2] = system: ragweed (common ragweed, Ambrosia elation); assay: Test C pre-/postemergence: ragweed; type: in vivo
Method in brief: as §1

[3] = system: blackgrass (Alopecurus myosuroides); assay: Test C pre-/postemergence: blackgrass; type: in vivo
Method in brief: as §1

[4] = system: wild oat (Avena fatua); assay: Test C pre-/postemergence: wild oat; type: in vivo; conditions: Postemergence
Method in brief: as §1

[5] = system: pigweed (Amaranthus retroflexus); assay: Test C pre-/postemergence: pigweed; type: in vivo
Method in brief: as §1

[6] = system: Barnyardgrass; assay: Test C preemergence: barnyardgrass; type: in vivo, Echinochloa crus-galli
[7] = system: galium (catchweed bedstraw, Galium aparine); assay: Test C pre-/postemergence: galium; type: in vivo
Method in brief: as §1

[8] = system: winter wheat (Triticum aestivum); assay: Test C pre-/postemergence: winter wheat; type: in vivo
Method in brief: as §1

[9] = system: pigweed (Amaranthus retroflexus); assay: Test A pre-/postemergence: pigweed; type: in vivo; conditions: Amaranthus retroflexus, 240 h; for pest or weed control at 125 g/ha: 125 g ai/ha; for pest or weed control at 500 g/ha: 500 g ai/ha
Method in brief: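 Visual 0–100 injury ratings (0 no effect, 100 complete control) taken about ten days after treatment, relative to untreated controls. Preemergence treatment was a directed soil spray; postemergence plants were 2–10 cm tall at one- to two-leaf stage. Soil: loam/sand blend.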

[10] = system: rice (Oryza sativa); assay: Test B flooded paddy: rice; type: in vivo; conditions: Flood; 125 g ai/ha; applied to paddy water at 2-leaf stage; visually evaluated after 13 to 15 days
Method in brief: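 2-leaf plants; pots flooded 3 cm over soil; compound added to paddy water, depth kept constant. Greenhouse 13–15 d. Visual rating vs controls, 0–100 scale (100 = complete control); dash = no result.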

[11] = system: morningglory (Ipomoea coccinea); assay: Test C pre-/postemergence: morningglory; type: in vivo
Method in brief: as §1

[12] = Postemergence, 31 g ai/ha, scale 0 to 100 (0 no effect, 100 complete control)
[13] = Postemergence, 62 g ai/ha, scale 0 to 100 (0 no effect, 100 complete control)
[14] = Postemergence, 125 g ai/ha, scale 0 to 100, 0 no effect, 100 complete control
[15] = Postemergence, 250 g ai/ha, scale 0 to 100
[16] = Preemergence, 31 g ai/ha, scale 0 (no effect) to 100 (complete control)
[17] = Preemergence, 62 g ai/ha, scale of 0 to 100, 0 is no effect, 100 is complete control
[18] = Preemergence, 125 g ai/ha, scale 0 to 100, 0 no effect, 100 complete control
[19] = Preemergence, 250 g ai/ha, scale 0 to 100, 0 no effect, 100 complete control
[20] = 125 g ai/ha, scale 0 to 100, 0 no effect, 100 complete control

With `CCOc1nn(-c2ccc(C(F)(F)F)cc2)nc1Cc1ccnc(C(F)(F)F)c1` [Compound 164, 4-[[5-ethoxy-2-[4-(trifluoromethyl)phenyl]-2H-1,2,3-triazol-4-yl]methyl]-2-(trifluoromethyl)pyridine] as the compound, how does the “Plant response rating, Nutsedge, Yellow” value [1, 12] read?
The value was 0.

What about the “Plant response rating, Nutsedge, Yellow” value [1, 13] of the same compound?
Its value is 5.

What about the “Plant response rating, Nutsedge, Yellow” value [1, 14] of the same compound?
The value was 5.

What about the “Plant response rating, Nutsedge, Yellow” value [1, 15] of the same compound?
The value was 10.

What about the “Plant response rating, Nutsedge, Yellow” value [1, 16] of the same compound?
The value was 0.

And the “Plant response rating, Nutsedge, Yellow” value [1, 17]?
The value was 0.

What about the “Plant response rating, Nutsedge, Yellow” value [1, 18] of the same compound?
Its value is 0.

What about the “Plant response rating, Nutsedge, Yellow” value [1, 19] of the same compound?
The value was 0.

What about the “Plant response rating, Ragweed” value [2, 12] of the same compound?
The value was 50.

What about the “Plant response rating, Ragweed” value [2, 13] of the same compound?
Its value is 50.

And the “Plant response rating, Ragweed” value [2, 15]?
The value was 60.

What about the “Plant response rating, Ragweed” value [2, 16] of the same compound?
The value was 20.

And the “Plant response rating, Ragweed” value [2, 17]?
The value was 20.

And the “Plant response rating, Ragweed” value [2, 18]?
Its value is 25.

And the “Plant response rating, Ragweed” value [2, 19]?
Its value is 30.

What about the “Plant response rating, Blackgrass” value [3, 12] of the same compound?
Its value is 5.

What about the “Plant response rating, Blackgrass” value [3, 13] of the same compound?
The value was 5.

What about the “Plant response rating, Blackgrass” value [3, 14] of the same compound?
Its value is 15.

What about the “Plant response rating, Blackgrass” value [3, 15] of the same compound?
The value was 15.

And the “Plant response rating, Blackgrass” value [3, 16]?
Its value is 5.

What about the “Plant response rating, Blackgrass” value [3, 17] of the same compound?
The value was 10.

What about the “Plant response rating, Blackgrass” value [3, 18] of the same compound?
Its value is 60.

What about the “Plant response rating, Blackgrass” value [3, 19] of the same compound?
The value was 70.

And the “Plant response rating, Oat, Wild” value ([4]; 31 g ai/ha, scale 0 to 100 (0 no effect, 100 complete control))?
The value was 5.

And the “Plant response rating, Oat, Wild” value ([4]; 62 g ai/ha, scale 0 to 100 (0 no effect, 100 complete control))?
Its value is 5.

And the “Plant response rating, Oat, Wild” value [4, 20]?
Its value is 5.

What about the “Plant response rating, Oat, Wild” value ([4]; 250 g ai/ha, scale 0 to 100) of the same compound?
Its value is 10.

And the “Plant response rating, Pigweed” value [5, 12]?
Its value is 50.

And the “Plant response rating, Pigweed” value [5, 13]?
Its value is 75.

What about the “Plant response rating, Pigweed” value [5, 14] of the same compound?
Its value is 80.

What about the “Plant response rating, Pigweed” value [5, 15] of the same compound?
The value was 80.

What about the “Plant response rating, Pigweed” value [5, 16] of the same compound?
Its value is 10.

And the “Plant response rating, Pigweed” value [5, 17]?
Its value is 35.

And the “Plant response rating, Pigweed” value [5, 18]?
The value was 90.

And the “Plant response rating, Pigweed” value [5, 19]?
The value was 100.

And the “Plant response rating, Barnyardgrass” value ([6]; 31 g ai/ha, scale 0 (no effect) to 100 (complete control))?
The value was 5.

And the “Plant response rating, Barnyardgrass” value ([6]; 62 g ai/ha, scale of 0 to 100, 0 is no effect, 100 is complete control)?
The value was 15.

And the “Plant response rating, Barnyardgrass” value [6, 20]?
The value was 25.

And the “Plant response rating, Galium” value [7, 12]?
Its value is 30.

What about the “Plant response rating, Galium” value [7, 13] of the same compound?
The value was 30.

And the “Plant response rating, Galium” value [7, 14]?
Its value is 60.

What about the “Plant response rating, Galium” value [7, 15] of the same compound?
Its value is 60.

And the “Plant response rating, Galium” value [7, 16]?
Its value is 0.

What about the “Plant response rating, Galium” value [7, 17] of the same compound?
Its value is 50.

And the “Plant response rating, Galium” value [7, 18]?
The value was 80.

And the “Plant response rating, Galium” value [7, 19]?
The value was 80.

And the “Plant response rating, Wheat” value [8, 12]?
Its value is 5.

And the “Plant response rating, Wheat” value [8, 13]?
The value was 10.

And the “Plant response rating, Wheat” value [8, 14]?
The value was 10.

What about the “Plant response rating, Wheat” value [8, 15] of the same compound?
The value was 10.

What about the “Plant response rating, Wheat” value [8, 16] of the same compound?
The value was 0.

And the “Plant response rating, Wheat” value [8, 17]?
The value was 0.

And the “Plant response rating, Wheat” value [8, 18]?
The value was 0.

What about the “Plant response rating, Wheat” value [8, 19] of the same compound?
The value was 5.

And the pest or weed control at 125 g/ha ([9]; post-emergence, Postemergence, 0 to 100 scale, 0 is no effect, 100 is complete control, read-out: Plant response rating, Pigweed)?
Its pest or weed control at 125 g/ha is 100%.

What about the pest or weed control at 500 g/ha ([9]; post-emergence, Postemergence, 0 to 100 scale, 0 is no effect, 100 is complete control, read-out: Pigweed plant response rating) of the same compound?
The pest or weed control at 500 g/ha was 100%.

What about the pest or weed control at 125 g/ha ([9]; pre-emergence, Preemergence, 0 to 100 scale where 0 is no effect and 100 is complete control, read-out: Plant response rating, Pigweed) of the same compound?
Its pest or weed control at 125 g/ha is 100%.

What about the pest or weed control at 500 g/ha ([9]; pre-emergence, Preemergence, 0 to 100 scale (0 no effect, 100 complete control), read-out: Plant response rating, Pigweed) of the same compound?
The pest or weed control at 500 g/ha was 100%.

What about the “Plant response rating, Rice (0 to 100 scale, 0 is no effect, 100 is complete control)” value [10] of the same compound?
The value was 45.

And the “Plant response rating, Morningglory” value [11, 12]?
The value was 50.

And the “Plant response rating, Morningglory” value [11, 13]?
The value was 60.

And the “Plant response rating, Morningglory” value [11, 15]?
The value was 75.

What about the “Plant response rating, Morningglory” value [11, 16] of the same compound?
The value was 5.

And the “Plant response rating, Morningglory” value [11, 17]?
Its value is 15.

What about the “Plant response rating, Morningglory” value [11, 18] of the same compound?
The value was 25.

What about the “Plant response rating, Morningglory” value [11, 19] of the same compound?
Its value is 45.
